Earlier results as cited in patent US20250235394A1, “BIOFILM-TARGETING NANOPARTICLES TO INCREASE THE […] OF FLUORIDE” (The Regents of The University of Michigan, priority 2021, published 2025).

Conditions: solution containing 226 ppm F as CaF2

precipitation in solution: precipitation of CaF2 promptly occurs
SMILES: [Ca+2].[F-].[F-] [CaF2, calcium fluoride]
